Test results from patent EP2818472A1, “Imidazo[4,5-c]pyridine and pyrrolo[3,2-c]pyridine compounds as G-protein-coupled receptor kinase 5 (GRK5) modulators” (Max-Planck-Gesellschaft zur Förderung der Wissenschaften …, priority 2013, dated 2014).

system: beta-TC6 cells; assay: Insulin HTRF assay (relative activity Ar) in beta-TC6 cells; type: cell-based, mouse; conditions: Mus musculus, Beta-TC6, 4 h, insulin HTRF, supernatant of beta-TC6 cells, incubation with test compound at 37°C for 2, 3, 4h; read-out: Ar (relative activity)
In short: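 beta-TC6 cells (15k/well, seeded 24 or 48 h) washed, then exposed to compound in induction buffer (0.5% DMSO final) for 2, 3 or 4 h at 37°C.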

Row | SMILES | Emax [%]
1 | COc1cc(-n2cnc3cnc(-c4cccc(C(N)=O)c4)cc32)cc(OC)c1OC [Compound 732, 3-[1-(3,4,5-trimethoxyphenyl)imidazo[4,5-c]pyridin-6-yl]benzamide] | 30 to 50
2 | Clc1cccc(-c2cc3c(Nc4cccnc4)nccc3[nH]2)c1 [Compound 315, 2-(3-chlorophenyl)-N-(3-pyridyl)-1H-pyrrolo[3,2-c]pyridin-4-amine] | 30 to 50
3 | CNc1nc2cnc(Nc3cccc(Cl)c3)cc2n1Cc1ccc(OC)c(OC)c1 [Compound 666, N6-(3-chlorophenyl)-1-[(3,4-dimethoxyphenyl)methyl]-N2-methyl-imidazo[4,5-c]pyridine-2,6-diamine] | 30 to 50
4 | CN1CCN(c2ccc(Nc3cc4c(cn3)cc(-c3ccc(C(=O)N(C)C)cc3)n4C)cc2)CC1 [Compound 49, N,N-dimethyl-4-[1-methyl-6-[4-(4-methylpiperazin-1-yl)anilino]pyrrolo[3,2-c]pyridin-2-yl]benzamide] | 50 to 100
5 | CN(C)C(=O)c1ccc(-c2cc3cnc(Nc4ccc(C(F)(F)F)cc4)cc3[nH]2)cc1 [Compound 32, N,N-dimethyl-4-[6-[4-(trifluoromethyl)anilino]-1H-pyrrolo[3,2-c]pyridin-2-yl]benzamide] | 30 to 50
6 | CNc1nc2cnc(-c3cccc(Cl)c3)cc2n1Cc1ccccc1 [Compound 532, 1-benzyl-6-(3-chlorophenyl)-N-methyl-imidazo[4,5-c]pyridin-2-amine] | 50 to 100
7 | COc1ccc(Nc2cc3c(cn2)nc(-c2ccc(OC)c(OC)c2)n3C)cc1O [Compound 723, 5-[[2-(3,4-dimethoxyphenyl)-1-methyl-imidazo[4,5-c]pyridin-6-yl]amino]-2-methoxy-phenol] | > 100
8 | Cn1c(-c2ccco2)nc2cnc(Nc3ccccc3Cl)cc21 [Compound 710, N-(2-chlorophenyl)-2-(2-furyl)-1-methyl-imidazo[4,5-c]pyridin-6-amine] | 30 to 50
9 | COc1ccc(Nc2nccc3c2cc(-c2ccsc2)n3C)cn1 [Compound 275, N-(6-methoxy-3-pyridyl)-1-methyl-2-(3-thienyl)pyrrolo[3,2-c]pyridin-4-amine] | 50 to 100
10 | Cn1c(-c2ccsc2)cc2c(Nc3ccc4c(c3)OCCO4)nccc21 [Compound 273, N-(2,3-dihydro-1,4-benzodioxin-6-yl)-1-methyl-2-(3-thienyl)pyrrolo[3,2-c]pyridin-4-amine] | 30 to 50
11 | CNc1nc2cnc(Nc3ccc(OC)c(O)c3)cc2n1-c1cccc(C(F)(F)F)c1 [Compound 551, 2-methoxy-5-[[2-(methylamino)-1-[3-(trifluoromethyl)phenyl]imidazo[4,5-c]pyridin-6-yl]amino]phenol] | 50 to 100
12 | COc1cccc(-c2cc3c(Nc4ccc(NC(C)=O)cc4)nccc3[nH]2)c1 [Compound 306, N-[4-[[2-(3-methoxyphenyl)-1H-pyrrolo[3,2-c]pyridin-4-yl]amino]phenyl]acetamide] | 50 to 100
13 | Cn1c(-c2ccsc2)cc2c(Nc3ccc(C#N)cc3)nccc21 [Compound 281, 4-[[1-methyl-2-(3-thienyl)pyrrolo[3,2-c]pyridin-4-yl]amino]benzonitrile] | 0 to 30
14 | COc1ccc(Nc2nccc3[nH]c(-c4cccc(F)c4)nc23)cc1 [Compound 407, 2-(3-fluorophenyl)-N-(4-methoxyphenyl)-1H-imidazo[4,5-c]pyridin-4-amine] | 50 to 100
15 | CNc1nc2cnc(Nc3cccc(OC)c3)cc2n1-c1ccccc1 [Compound 503, N6-(3-methoxyphenyl)-N2-methyl-1-phenyl-imidazo[4,5-c]pyridine-2,6-diamine] | 50 to 100
16 | Clc1cccc(Nc2nccc3[nH]c(-c4ccncc4)nc23)c1 [Compound 424, N-(3-chlorophenyl)-2-(4-pyridyl)-1H-imidazo[4,5-c]pyridin-4-amine] | 30 to 50
17 | CC(=O)Nc1ccc(Nc2cc3c(cn2)nc(Cc2ccccc2)n3C)cc1 [Compound 700, N-[4-[(2-benzyl-1-methyl-imidazo[4,5-c]pyridin-6-yl)amino]phenyl]acetamide] | 50 to 100
18 | COc1ccc(Nc2cc3[nH]c(-c4ccc(C(=O)N(C)C)cc4)cc3cn2)cc1OC [Compound 21, 4-[6-(3,4-dimethoxyanilino)-1H-pyrrolo[3,2-c]pyridin-2-yl]-N,N-dimethyl-benzamide] | 50 to 100
19 | COc1cc(OC)cc(-c2cc3c(Nc4ccc(S(C)(=O)=O)cc4)nccc3[nH]2)c1 [Compound 293, 2-(3,5-dimethoxyphenyl)-N-(4-methylsulfonylphenyl)-1H-pyrrolo[3,2-c]pyridin-4-amine] | 50 to 100
20 | c1ccc(Cn2c(-c3cccnc3)cc3cnc(Nc4ccncn4)cc32)cc1 [Compound 99, 1-benzyl-2-(3-pyridyl)-N-pyrimidin-4-yl-pyrrolo[3,2-c]pyridin-6-amine] | 30 to 50
21 | CN(C)c1ccc(-c2cc3c(N4CCOCC4)nccc3[nH]2)cc1 [Compound 189, N,N-dimethyl-4-(4-morpholino-1H-pyrrolo[3,2-c]pyridin-2-yl)aniline] | > 100

Row | SMILES | Emax [%]
22 | c1ccc(-c2cc3cnc(Nc4ccncc4)cc3[nH]2)cc1 [Compound 178, 2-phenyl-N-(4-pyridyl)-1H-pyrrolo[3,2-c]pyridin-6-amine] | 30 to 50
23 | CNc1nc2cnc(Nc3ccc4c(c3)OCO4)cc2n1Cc1ccccc1 [Compound 534, N6-(1,3-benzodioxol-5-yl)-1-benzyl-N2-methyl-imidazo[4,5-c]pyridine-2,6-diamine] | 50 to 100
24 | COc1ccc(Nc2cc3c(cn2)nc(-c2ccccc2)n3C)cn1 [Compound 704, N-(6-methoxy-3-pyridyl)-1-methyl-2-phenyl-imidazo[4,5-c]pyridin-6-amine] | 30 to 50
25 | CNc1nc2cnc(Nc3ccc4c(c3)OCO4)cc2n1Cc1ccco1 [Compound 524, N6-(1,3-benzodioxol-5-yl)-1-(2-furylmethyl)-N2-methyl-imidazo[4,5-c]pyridine-2,6-diamine] | 50 to 100
26 | CN(C)C(=O)c1ccc(-c2cc3cnc(Nc4cccc(NS(C)(=O)=O)c4)cc3[nH]2)cc1 [Compound 39, 4-[6-[3-(methanesulfonamido)anilino]-1H-pyrrolo[3,2-c]pyridin-2-yl]-N,N-dimethyl-benzamide] | 50 to 100
27 | COc1ccc(OC)c(CCNc2nc3cnc(-c4ccncc4)cc3n2C)c1 [Compound 591, N-[2-(2,5-dimethoxyphenyl)ethyl]-1-methyl-6-(4-pyridyl)imidazo[4,5-c]pyridin-2-amine] | 30 to 50
28 | CS(=O)(=O)c1ccc(Nc2cc3[nH]c(-c4cn[nH]c4)cc3cn2)cc1 [Compound 120, N-(4-methylsulfonylphenyl)-2-(1H-pyrazol-4-yl)-1H-pyrrolo[3,2-c]pyridin-6-amine] | > 100
29 | CNc1nc2cnc(Nc3cccc(OC)c3)cc2n1-c1cccc(F)c1 [Compound 680, 1-(3-fluorophenyl)-N6-(3-methoxyphenyl)-N2-methyl-imidazo[4,5-c]pyridine-2,6-diamine] | 50 to 100
30 | CNc1nc2cnc(Nc3ccc(OC)c(O)c3)cc2n1Cc1ccccc1 [Compound 536, 5-[[1-benzyl-2-(methylamino)imidazo[4,5-c]pyridin-6-yl]amino]-2-methoxy-phenol] | 50 to 100
31 | CNc1nc2cnc(Nc3ccc(OC(F)(F)F)cc3)cc2n1CCOC [Compound 773, 1-(2-methoxyethyl)-N2-methyl-N6-[4-(trifluoromethoxy)phenyl]imidazo[4,5-c]pyridine-2,6-diamine] | 0 to 30
32 | COc1cccc(-c2cc3c(cn2)ncn3Cc2ccc(OC)c(OC)c2)c1 [Compound 754, 1-[(3,4-dimethoxyphenyl)methyl]-6-(3-methoxyphenyl)imidazo[4,5-c]pyridine] | 0 to 30
33 | COc1ccc(Nc2nccc3[nH]c(-c4cccnc4)cc23)cn1 [Compound 233, N-(6-methoxy-3-pyridyl)-2-(3-pyridyl)-1H-pyrrolo[3,2-c]pyridin-4-amine] | 50 to 100
34 | CC(C)c1ccc(Nc2cc3[nH]c(-c4ccc(C(=O)N(C)C)cc4)cc3cn2)cc1 [Compound 38, 4-[6-(4-isopropylanilino)-1H-pyrrolo[3,2-c]pyridin-2-yl]-N,N-dimethyl-benzamide] | 0 to 30
35 | COCCNc1nc2cnc(-c3ccc(S(C)(=O)=O)cc3)cc2n1C [Compound 648, N-(2-methoxyethyl)-1-methyl-6-(4-methylsulfonylphenyl)imidazo[4,5-c]pyridin-2-amine] | 30 to 50
36 | c1cncc(-c2cc3cnc(Nc4ccncc4)cc3[nH]2)c1 [Compound 76, 2-(3-pyridyl)-N-(4-pyridyl)-1H-pyrrolo[3,2-c]pyridin-6-amine] | 30 to 50
37 | CC(=O)N(C)c1cccc(-c2cc3cnc(Nc4ccc(N5CCOCC5)cc4)cc3n2C)c1 [Compound 163, N-methyl-N-[3-[1-methyl-6-(4-morpholinoanilino)pyrrolo[3,2-c]pyridin-2-yl]phenyl]acetamide] | 50 to 100
38 | COc1ccc(Nc2nccc3c2cc(-c2ccc(C(=O)N(C)C)cc2)n3C)cc1OC [Compound 215, 4-[4-(3,4-dimethoxyanilino)-1-methyl-pyrrolo[3,2-c]pyridin-2-yl]-N,N-dimethyl-benzamide] | 50 to 100
39 | Cn1c(-c2cccnc2)cc2cnc(Nc3ccccc3)cc21 [Compound 88, 1-methyl-N-phenyl-2-(3-pyridyl)pyrrolo[3,2-c]pyridin-6-amine] | 30 to 50
40 | Cc1ccc(-c2nc3c(Nc4ccccc4)nccc3[nH]2)cc1 [Compound 380, N-phenyl-2-(p-tolyl)-1H-imidazo[4,5-c]pyridin-4-amine] | 30 to 50
41 | CNc1nc2cnc(Nc3cccc(N(C)C)c3)cc2n1Cc1ccco1 [Compound 522, N6-[3-(dimethylamino)phenyl]-1-(2-furylmethyl)-N2-methyl-imidazo[4,5-c]pyridine-2,6-diamine] | 30 to 50
